The record followed here is patent publication US9096591B2, “Tetracyclic compounds” (Medivation Technologies, Inc., priority 2007, dated 2015).

Usually IC50 stands for the concentration needed to halve the response being measured.

One assay has as its system AMPA receptors. Briefly: AMPA-receptor activity: kainic acid-induced currents in Purkinje cells (patch-clamp). It counts as cell-based, rat. Particulars: mean±SEM, control=100%. As to the method:
The analysis of effects of the testing compounds on AMPA receptors was carried out using an electrophysiological patch-clamp method in whole cell configuration (Hamill et al., 1980) of the Purkinje cell fresh isolated from the cerebellum of juvenile rats (12-15 days). The isolation was carried out using a modified method (Kaneda et al., 1988) in which cerebral 400-600 μm sections were incubated for 60 min in the temperature controlled chamber in 10 mL of buffer solution (150 mM NaCl, 5 mM KCl, 2 mM CaCl2, 2 mM MgSO4.7H2O, 10 mM HEPES, 15 mM glucose, pH 7.42). The incubation solution was exchanged with the incubation buffer with pronase (2 mg/mL) and collagenase (1 mg/mL) for 70 min. After a 20 min wash with the original buffer, all sections were placed into the Petri dish and were separated using a Pasteur pipette. All solutions were constantly aerated with 100% O2 at 34° C. The composition of extracellular saline was: 150 mM NaCl, 5 mM KCl, 2.6 mM CaCl2, 2 mM MgSO4.7H2O, 10 mM HEPES, 15 mM glucose, pH 7.36. The transmembrane current was induced as a result of the activation of AMPA receptors by a superfusion with the agonist solution (kainic acid). The currents were measured using borosilicate microelectrodes (resistance […]) filled with 100 mM KCl, 11 mM EGTA, 1 mM CaCl2, 1 mM MgCl2, 10 mM HEPES, 5 mM ATP, pH 7.2. The currents were registered using EPC-9 (HEKA, Germany) and recorded with Pulse software package which was also purchased from HEKA. The analysis of observations was carried out using Pulsefit (HEKA, Germany) and the statistical significance was analyzed using a Student's T-test criteria. Data are presented as mean±SEM in % of control values.
Compounds of the invention were tested in 3-5 neurons. Every concentration of compound was repeated three-four times in every neuron. Data are presented as mean±SEM in % of Control values (Table 13+14, FIGS. 8-12). Control value=100%.
Background: In patch-clamp work, channel activity is measured electrically.

The next assay deals with mice. Put plainly: recognition test of new location of a known object (spatial memory). The format is in vivo. As to conditions: for overall effect on memory (in words): doses 0.05-1 mg/kg.
The test system of the next assay is rat brain mitochondria. Put plainly: Ca2+-induced swelling of mitochondria (MPT pore opening). It counts as biochemical, Wistar rats. Particulars: rat brain mitochondria; for A540 increase in mitochondrial suspension after addition of 100 μM of compound: 100 μM compound; for IC50: read-out: IC50, Ca2+-induced (25-50 μM) swelling of brain mitochondria, Ca2+ 25-50 μM. As to the method: Rat liver and brain mitochondria were prepared from male Wistar rats. The rats were euthanized in a CO2 chamber followed by decapitation the procedure being in compliance with the Guidelines for Animal Experiments at IPAC RAS. […]
Brain mitochondria were isolated from the pooled forebrains of two rats. The modified method of Sims was used to isolate and purify brain mitochondria in a Percoll gradient. The brain was homogenized in “buffer A” (225 mM mannitol, 75 mM sucrose, 5 mM HEPES, 1 mM EGTA, pH 7.4 [KOH]) and centrifuged for 10 min at 1300 g. The supernatant was centrifuged for 10 min at 10000 g, and then the pellet was suspended in 15% Percoll and layered on a discontinuous gradient consisting of 40 and 23% Percoll, respectively, which was then centrifuged for 10 min at 30000 g without using brakes. The mitochondria were collected from the interface of the lower two layers and after resuspension in “buffer A”, the suspension was centrifuged at 16600 g for 10 min, then the pellet was resuspended in “buffer A”, BSA (10 mg/mL) was added to bind free fatty acids; and the suspensions was centrifuged again at 6300 g for 10 min. Following centrifugation the pelleted mitochondria were re-suspended in isolation medium without EGTA to achieve a protein concentration of 15-20 mg/ml.
Mitochondrial swelling caused by influx of solutes through open PT pores results in an increase in light transmission (i.e., a reduced turbidity). This turbidity change offers a convenient and frequently used assay of the MPT by measurement of absorbance in mitochondrial suspensions. In the present study, the MPT induced by Ca^2+ and inorganic phosphate (Ca/Pi) was monitored by absorbance changes at 540 nm in a cuvette in a Beckman DU 640 spectrophotometer in 1 ml of buffer A plus 0.8 μM rotenone, 5 mM succinate, 1 mM KH2PO4 and 0.5 mg or 0.2 mg protein of isolated liver or brain mitochondria, accordingly. Reaction was started by the addition of triggering agent (Ca^2+). Pre-treatment and reaction were performed at 30° C. Swelling rate was quantified as ΔA540/min/mg, calculated, in all cases, from a tangent to the steepest portion of the plot of A540 versus time.
Ca^2+-induced Swelling of mitochondria was used as the primary screening test for compounds influence on MPT pore opening. […] But the inhibition of swelling may be connected not only with direct inhibition of MPT pore opening but also with the impairment of respiratory function of mitochondria and with the compounds action on calcium transport into mitochondria. For the primary estimation of these possibilities the mitochondrial membrane potential and calcium retention capacity of mitochondria were measured. […] New synthesized compounds (except C-14 and C-43) alone induced an increase of brain mitochondria suspension turbidity. The mechanism of such effect needs additional investigations.

A value given as a limit tells only on which side of the number the result lay.

As to `Cc1ccc2c(c1)c1c(n2CCc2nc(-c3ccccc3)cs2)CCN(C)C1` [Compound C1-5], the “kainic acid-induced currents in Purkinje cells, % of Control values” in the assay with AMPA receptors (compound 10^−5 M) is listed as 126 ± 18%; in the assay with AMPA receptors (compound 10^−6 M) it was 64 ± 23%; in the assay on AMPA receptors (compound 10^−7 M), 70 ± 23%; in the assay with AMPA receptors (compound 10^−8 M), 62 ± 12%; with AMPA receptors (compound 10^−9 M), 64 ± 8%. Further, the “Influence on memory in the test recognition new localization of known object” value (shortened to “Influence on memory”) in the assay with mice (Dose of Compound 0.05 mg/kg) is reported as “−”; with mice (Dose of Compound 0.1 mg/kg), “+”; in the assay on mice (Dose of Compound 0.5 mg/kg) it was “−”; with mice (Dose of Compound 1.0 mg/kg), “+”. Moreover, in the assay with mice (comparison of effective doses), the “activity on memory compared with dimebon (in words)” value is given as “at a level dimebon”. The “effect of the dose on exploration time / memory (in words)” value is “no effect” in the assay with mice (mice, dose 0.05 mg/kg) and “disappearance of the stimulating effect on memory” with mice (mice, dose 0.5 mg/kg). For the same compound, the “time exploring the object in a new location, % of the total time” value in the assay with mice (mice, dose 0.1 mg/kg) is 57.9±7.5%; in the assay with mice (mice, dose 1 mg/kg) it was 57.4±8.4%. The “time exploring the object in the known position, % of the total time” value in the assay on mice (mice, dose 0.1 mg/kg) is listed as 42.1±7.5%; in the assay on mice (mice, dose 1 mg/kg), 42.6±8.4%. Also, the “overall effect on memory (in words)” value in the assay with mice (mice) was “stimulating effect on memory”. Moreover, the “A540 increase in mitochondrial suspension after addition of 100 μM of compound” value (“A540 increase” for short) in the assay with rat brain mitochondria is recorded as 30 rel.units. Further, the 50% inhibitory concentration (IC50) in the assay on rat brain mitochondria amounted to 18 ± 16 µM.

For `CN1CCc2c(c3cc(F)ccc3n2CCc2nc(-c3ccccc3)cs2)C1` [Compound C1-7], in the assay with rat brain mitochondria, the “A540 increase” value is >30 rel.units and the IC50 worked out at 28 ± 6 µM.

As to `Cc1ccc2c(c1)c1c(n2CCc2noc(-c3ccccc3)n2)CCN(C)C1` [Compound C4-4], the “kainic acid-induced currents in Purkinje cells, % of Control values” in the assay on AMPA receptors (compound 3 × 10^−5 M) was found to be 150 ± 20%; with AMPA receptors (compound 10^−5 M) it was 150 ± 26%; in the assay on AMPA receptors (compound 10^−6 M), 142 ± 11%; with AMPA receptors (compound 10^−7 M), 147 ± 15%; in the assay on AMPA receptors (compound 10^−8 M), 129 ± 5%; in the assay with AMPA receptors (compound 10^−9 M), 100%. For the same compound, the “Influence on memory” value in the assay with mice (Dose of Compound 0.05 mg/kg) is reported as “−”; in the assay with mice (Dose of Compound 0.1 mg/kg), “+”; in the assay with mice (Dose of Compound 0.5 mg/kg), “+”; in the assay on mice (Dose of Compound 1.0 mg/kg) it was “+”. The “time after training for which the activating effect on memory is preserved” value with mice (mice) is given as “about 48 hours”. Besides, in the assay with mice (mice, dose 0.05 mg/kg), the “effect of the dose on exploration time / memory (in words)” value is given as “no effect”. Besides, the “time exploring the object in a new location, % of the total time” value in the assay on mice (mice, dose 0.1 mg/kg) worked out at 58.5±9.6%; in the assay on mice (mice, dose 0.5 mg/kg) it was 59.1±4.2%. In addition, the “time exploring the object in the known position, % of the total time” value in the assay with mice (mice, dose 0.1 mg/kg) was determined as 41.5±9.6%; in the assay on mice (mice, dose 0.5 mg/kg), 40.9±4.2%. The “overall effect on memory (in words)” value in the assay on mice (mice) is listed as “activating effect on memory”. The “A540 increase” value in the assay on rat brain mitochondria is on record as 14 rel.units. In addition, in the assay on rat brain mitochondria, the IC50 was determined as 6.7 ± 1.2 µM.

Turning to `CN1CCc2c(c3cc(Cl)ccc3n2CCc2noc(-c3ccccc3)n2)C1` [Compound C4-6], the “kainic acid-induced currents in Purkinje cells, % of Control values” in the assay with AMPA receptors (compound 3 × 10^−5 M) was determined as 149 ± 33%; with AMPA receptors (compound 10^−5 M), 152 ± 30%; with AMPA receptors (compound 10^−6 M), 140 ± 25%; in the assay on AMPA receptors (compound 10^−7 M), 120 ± 20%; in the assay on AMPA receptors (compound 10^−8 M) it was 100 ± 3%. In addition, the “Influence on memory” value in the assay on mice (Dose of Compound 0.05 mg/kg) was “−”; in the assay on mice (Dose of Compound 0.1 mg/kg) it was “−”; in the assay on mice (Dose of Compound 0.5 mg/kg), “+”; in the assay on mice (Dose of Compound 1.0 mg/kg), “+”. In addition, the “activity on memory: times weaker than dimebon” value with mice (comparison of effective doses) is recorded as “approximately 5 times”. The “effect of the dose on exploration time / memory (in words)” value with mice (mice, dose 0.05 mg/kg) is “not effective”; with mice (mice, dose 0.1 mg/kg) it was “not effective”. The “time exploring the object in a new location, % of the total time” value is 61.0±4.8% in the assay with mice (mice, dose 0.5 mg/kg) and 56.3±7.7% in the assay on mice (mice, dose 1 mg/kg). For the same compound, the “time exploring the object in the known position, % of the total time” value in the assay with mice (mice, dose 0.5 mg/kg) was determined as 39.0±4.8%; in the assay on mice (mice, dose 1 mg/kg), 43.7±7.7%. In addition, the “overall effect on memory (in words)” value with mice (mice) was “stimulated memory”. For the same compound, the “A540 increase” value in the assay with rat brain mitochondria is 28 rel.units. The IC50 in the assay on rat brain mitochondria was 6 ± 1.2 µM.

For `COc1ccc2c(c1)c1c(n2CCc2nc(-c3ccccc3)cs2)CCN(C)C1` [Compound C1-6], the “kainic acid-induced currents in Purkinje cells, % of Control values” in the assay on AMPA receptors (compound 3 × 10^−5 M) stood at 130 ± 6%; with AMPA receptors (compound 10^−5 M) it was 135 ± 1%; with AMPA receptors (compound 10^−6 M) it was 146 ± 12%; in the assay with AMPA receptors (compound 10^−7 M), 116 ± 7%; in the assay on AMPA receptors (compound 10^−8 M), 101 ± 4%; in the assay on AMPA receptors (compound 10^−9 M), 100 ± 3%. Also, in the assay with rat brain mitochondria, the “A540 increase” value is on record as 1.5 rel.units. In addition, the IC50 with rat brain mitochondria was 12.7 ± 6.2 µM.

On to `CN1CCc2c(c3ccccc3n2CCc2noc(-c3ccccc3)n2)C1` [Compound C4-1], for which the “kainic acid-induced currents in Purkinje cells, % of Control values” in the assay with AMPA receptors (compound 10^−5 M) is 97 ± 4%; with AMPA receptors (compound 10^−6 M), 110 ± 5%; in the assay on AMPA receptors (compound 10^−7 M), 115 ± 3%; in the assay on AMPA receptors (compound 10^−8 M), 147 ± 11%; with AMPA receptors (compound 10^−9 M), 125 ± 6%. Further, the “Influence on memory” value in the assay on mice (Dose of Compound 0.05 mg/kg) is “−”; in the assay on mice (Dose of Compound 0.1 mg/kg) it was “+”; with mice (Dose of Compound 0.5 mg/kg) it was “−”; with mice (Dose of Compound 1.0 mg/kg) it was “−”. In addition, the “A540 increase” value with rat brain mitochondria turned out to be 10 rel.units. Further, in the assay with rat brain mitochondria, the IC50 was determined as 3.9 ± 1.6 µM.
